# Laboratory results: patent publication US20250009903A1, “PEPTIDE-BINDING HYBRID LIPOSOME EXOSOME, PEPTIDE-BINDING EXOSOME, COMPOSITION CONTAINING SAME, AND METHOD OF FORMING SAME” (SEKISUI CHEMICAL CO., LTD., priority 2021, published 2025)
# Test system: HepG2 cells
# Experiment: Influence of peptide-binding MSC-derived / HEK293 cell-derived exosome solutions on cell growth (Experimental Example 5)
# Format: cell-based
# Protocol: After the sample medium was added, culturing was performed for 48 hours, and using the 8-channel pipette, washing was performed twice with 100 μl of a serum-free DMEM medium (H-Glc). A 10% FBS (exosome-depleted) DMEM (H-Glc) medium was added at 100 μl/well. In addition, after culturing was performed for 48 hours, Premix WST-1 Cell Proliferation Assay System (reagent for cell growth measurement, commercially available from Takara Bio Inc.) was added at 10 μl/well, and color development was performed by performing incubation for 2 hours under […] conditions. The absorbance at 440 nm was measured using “Synergy HTX Multimode Plate Reader” (culture plate absorptiometer, commercially available from Bio Tek Instruments, Inc.). The average absorbance of the control group (no liposome added) was set as 100, the percentage of the absorbance of each well was calculated and used as an index of the degree of cell growth. Here, the Tukey Kramer method was used for the multiple comparison test.
# A solution of a peptide having an amino acid sequence shown in SEQ ID NO: 1 was added to a 20 mM borate buffer solution (pH 8.6). In addition, Lipofectamine (registered trademark) (solution for transfection) was dissolved in a serum-free DMEM to prepare a 10% Lipofectamine solution. […]
sequence,measurement,setting,value
WEAALAEALAEALAEHLAEALAEALEALAA (Amino acid sequence derived from a protein fragment) [peptide],% with respect to control group (degree of cell growth),"Table 6A, Adipo-MSC-derived exosome 40 μg/ml, peptide SEQ ID NO: 1, DOX liposome 40 μM, n=6",147.2%
same,% with respect to control group (degree of cell growth),"Table 6B, HEK293 cell-derived exosome 40 μg/ml, peptide SEQ ID No. 1, DOX liposome 40 μM",141.3%
